Measurements: patent publication US20220218675A1, “TREATMENT OF OCULAR DISEASE” (PREMARK PHARMA GMBH, priority 2019, published 2022)

Key:
[1] = Solubility of pimecrolimus in different solvents (HPLC after 24-hour equilibration at 25 °C); type: physicochemical
Procedure: FIG. 2: Solubility of pimecrolimus in different solvents. […] Form B refers to the anhydrous, crystalline polymorph B of pimecrolimus that has been used in the manufacture of the composition according to the invention. The legend in the lower table defines the terms used for the categorization of solubility.
The solubility of pimecrolimus in different solvents was determined by HPLC after 24-hour equilibration (vibration) at 25.0+/−0.5° C. After the vibration, the precipitate was separated from the solution, dried and investigated by DSC and by X-ray diffraction pattern.

[2] = system: animal models of skin inflammation; details: in vivo; cited from earlier work
skin = details: cited from earlier work
[3] = slightly soluble in water; cited from earlier work

Structure (SMILES) | Solubility in excipients that can be used in semi-solid formulations for dermal and ophthalmic use [1] | Solubility in aqueous solutions and water ([1]; 24-hour equilibration at 25.0+/-0.5 °C, HPLC, FIG. 2) | Efficacy in animal models of skin inflammation [2] | Potential for systemic immunosuppression (skin; compared with cyclosporin A and tacrolimus) | Anti-inflammatory activity in the skin, topical (skin; compared with cyclosporin A) | Skin atrophy (skin; in contrast to steroids) | Solubility in water [3]
CC[C@@H]1/C=C(\C)C[C@H](C)C[C@H](OC)[C@H]2O[C@@](O)(C(=O)C(=O)N3CCCC[C@H]3C(=O)O[C@H](/C(C)=C/[C@@H]3CC[C@H](Cl)[C@H](OC)C3)[C@H](C)[C@@H](O)CC1=O)[C@H](C)C[C@@H]2OC [pimecrolimus, (1R,9S,12S,13R,14S,17R,18E,21S,23S,24R,25S,27R)-12-[(1E)-2-{(1R,3R,4S)-4-chloro-3-methoxycyclohexyl}-1-methylvinyl]-17-ethyl-1,14-dihydroxy-23,25-dimethoxy-13,19,21,27-tetramethyl-11,28-dioxa-4-aza-tricyclo[22.3.1.04,9]octacos-18-ene-2,3,10,16-tetraone] | very poor | insoluble | highly effective | lower potential for systemic immunosuppression than cyclosporin A and tacrolimus | greater anti-inflammatory activity in the skin than cyclosporin A | does not induce skin atrophy | –
OCCc1ccccc1 [Phenyl ethyl alcohol, 2-phenyl-ethan-1-ol] | – | – | – | – | – | – | 2 ml/100 ml H2O
